According to patent US7485759B2, “Minimization of ligand degradation products, or reversion of same to useful phosphine ligands” (Dow Technology Investments LLC, priority 2003, dated 2009):

Columns and labels:
[1] = Continuous hydroformylation mini-plant with soy methyl esters; formation rate of phosphonium degradation products (Examples 6-8, Comparative Experiment 6); type: physicochemical
Method: The formation rate of phosphonium degradation products was measured in a continuous hydroformylation mini-plant, which consisted of a reaction system comprised of three reactors in series and a product/catalyst separation system with catalyst recycle. The reactors were charged with a catalyst solution containing Ligand A (2.5 wt %) shown in Example 5 hereinabove, Rh(CO)2acac (500 ppm Rh), and 20 wt % 1-methyl-2-pyrrolidone (NMP). A mixture of soy methyl esters was fed continuously to the first reactor. The reactors were operated at 600 psig (4,137 kPa) pressure by continuously feeding a gaseous mixture of carbon monoxide and hydrogen (CO:H2=1:1 vol/vol). The reaction was conducted for 153 hours continuously at 85° C. The formation rate of phosphonium degradation products was measured to be 0.02 g/liter/day during this period. The pressure of carbon monoxide and hydrogen (CO:H2=1:1 vol/vol) was then reduced to 400 psig (2,758 kPa) while keeping the temperature and other conditions unchanged. The reaction was conducted for 59 hours, and the formation rate of phosphonium degradation products was measured to be 0.03 g/liter/day during this period. The results illustrate a low rate of phosphonium formation at a pressure greater than 300 psig, and further that phosphonium formation decreases with increasing pressure.
The formation rate of phosphonium degradation products was measured in a continuous hydroformylation mini-plant similar to the system described in Example 6. The reaction system was charged with a catalyst solution containing Ligand A (2.5 wt %) as shown in Example 5 hereinabove, Rh(CO)2acac (500 ppm Rh), and 20 wt % 1-methyl-2-pyrrolidone (NMP). Soy methyl esters were fed continuously to the reaction system. The reactors were operated at 400 psig (2,758 kPa) pressure by continuously feeding a gaseous mixture of carbon monoxide and hydrogen (CO:H2=1:1 vol/vol). The reaction was conducted continuously for 59 hours with all reactors at 85° C. The formation rate of phosphonium degradation products was measured to be 0.03 g/liter/day during this period.
For comparative purposes, Example 7 was repeated with the exception that the temperature of the last reactor was increased to 100° C. while keeping the temperature of all other reactors at 85° C. All other conditions remained unchanged. The reaction was conducted for 140 hours and the formation rate of phosphonium degradation products was measured to be 0.07 g/liter/day during this period.
The formation rate of phosphonium degradation products was measured in a continuous hydroformylation mini-plant similar to the one described in Example 6. The reaction system was charged with a catalyst solution containing Ligand A (2 wt %), Rh(CO)2acac (300 ppm Rh), and 30 wt % 1-methyl-2-pyrrolidone (NMP). Soy methyl esters, were fed continuously to the reaction system. The reactors were operated at 300 psig (2,068 kPa) pressure by continuously feeding a gaseous mixture of carbon monoxide and hydrogen (CO:H2=1:1 vol/vol). The reaction was conducted continuously for 150 hours at 95° C. The formation rate of phosphonium degradation products were measured to be 0.05 g/liter/day during this period. The pressure of the reaction system was increased to 600 psig (4136 kPa), and the temperature of the reaction system was decreased to 85° C., while keeping all other conditions unchanged. The reaction was conducted for 350 hours and the formation rate of phosphonium degradation products was measured to be 0.02 g/liter/day during this period.

[2] = Batch hydroformylation of soy oil methyl esters; average rate of phosphonium ligand degradation product formation by 31P NMR (Comparative Experiment 5, Example 5); type: physicochemical; conditions: 30 psig, reaction time 4 days
Method: The hydroformylation of soy oil methyl esters was conducted at 100° C. for comparative purposes to illustrate the effect of temperature on the formation of ligand degradation products. Under a nitrogen atmosphere, a hydroformylation catalyst solution was prepared containing Ligand A (2.208 g, 5.866 mmol, initial ligand concentration in the reactor: 0.10M), Rh(CO)2acac (0.0366 g, 0.142 mmol), and 1-methyl-2-pyrrolidone (NMP, 16.05 g). Ligand A, the mono-sulfonated sodium salt of bis(dicyclohexyl)phenylphosphine, has the following structure.
Also prepared under nitrogen was a neat solution of soybean oil-derived methyl esters (33.95 g, 115.08 mmol), prepared by the transesterification of soybean oil with methanol using standard methods known in the art. Soybean oil contains polyunsaturated esters. Under nitrogen, the catalyst solution was added into a 100 mL stainless steel reactor, and the soy methyl esters were added into a substrate delivery cylinder attached to the reactor. […] The average rate of phosphonium ligand degradation product formation was determined using the NMR data.
The hydroformylation of soy oil methyl esters was conducted at 85° C. as an example of the invention to illustrate the effect of temperature on the formation of ligand degradation products. […] The average rate of phosphonium ligand degradation product formation was determined using the NMR data.

## O=S(=O)([O-])c1cccc(P(C2CCCCC2)C2CCCCC2)c1.[Na+] [Ligand A, mono-sulfonated sodium salt of bis(dicyclohexyl)phenylphosphine]
[1]; Comparative Experiment 6, 400 psig, last reactor 100° C., other reactors 85° C., 140 hours
  formation rate of phosphonium degradation products: 0.07 g/L/day
[1]; Example 6, 400 psig, 85° C., 59 hours, Ligand A 2.5 wt %
  formation rate of phosphonium degradation products: 0.03 g/L/day
[1]; Example 6, 600 psig, 85° C., 153 hours, Ligand A 2.5 wt %
  formation rate of phosphonium degradation products: 0.02 g/L/day
[1]; Example 7, 400 psig, all reactors at 85° C., 59 hours, Ligand A 2.5 wt %
  formation rate of phosphonium degradation products: 0.03 g/L/day
[1]; Example 8, 300 psig, 95° C., 150 hours, Ligand A 2 wt %
  formation rate of phosphonium degradation products: 0.05 g/L/day
[1]; Example 8, 600 psig, 85° C., 350 hours, Ligand A 2 wt %
  formation rate of phosphonium degradation products: 0.02 g/L/day
[2]; 85° C., initial ligand concentration 0.14 M
  Phosphonium formation rate Average: 0.04 g/L/day
[2]; 100° C., initial ligand concentration 0.10M
  Phosphonium formation rate (Average g/L/day): 0.1 g/L/day
